Measurements from patent publication US12281079B2, “Quinoline derivatives, processes for their preparation and uses thereof for the treatment of cancer” (Lead Discovery Center GmbH, priority 2019, dated 2025).
pIC50: −log10 of the molar value.

How the values were obtained:
[1] = system: mitochondrial transcription (7S RNA) in HeLa cells; test: Quantitative real time-PCR assay of inhibition of mitochondrial transcription (7S RNA) in HeLa cells; format: cell-based; settings: Homo sapiens, 4 h compound incubation, according to Example 5, read-out: cellular qPCR assay
Procedure, shortened: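 HeLa cells were exposed to compound dilution series or DMSO for 4 h, then RNA was extracted, normalized and reverse-transcribed. TaqMan qRT-PCR measured short-lived 7S RNA, with POLRMT as nuclear-transcription readout and TBP as housekeeping gene. Biological triplicates were analyzed by ΔΔCt and reported as Rq % (2−ΔΔCt).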

[2] = target: mitochondrial RNA polymerase (POLRMT) (Mus musculus, UniProt Q8BKF1); test: Homogeneous TR-FRET assay for mitochondrial transcription activity; format: biochemical; settings: homogeneous TR-FRET assay according to Example 4
Sequence of mitochondrial RNA polymerase (POLRMT) (Q8BKF1 42-1207): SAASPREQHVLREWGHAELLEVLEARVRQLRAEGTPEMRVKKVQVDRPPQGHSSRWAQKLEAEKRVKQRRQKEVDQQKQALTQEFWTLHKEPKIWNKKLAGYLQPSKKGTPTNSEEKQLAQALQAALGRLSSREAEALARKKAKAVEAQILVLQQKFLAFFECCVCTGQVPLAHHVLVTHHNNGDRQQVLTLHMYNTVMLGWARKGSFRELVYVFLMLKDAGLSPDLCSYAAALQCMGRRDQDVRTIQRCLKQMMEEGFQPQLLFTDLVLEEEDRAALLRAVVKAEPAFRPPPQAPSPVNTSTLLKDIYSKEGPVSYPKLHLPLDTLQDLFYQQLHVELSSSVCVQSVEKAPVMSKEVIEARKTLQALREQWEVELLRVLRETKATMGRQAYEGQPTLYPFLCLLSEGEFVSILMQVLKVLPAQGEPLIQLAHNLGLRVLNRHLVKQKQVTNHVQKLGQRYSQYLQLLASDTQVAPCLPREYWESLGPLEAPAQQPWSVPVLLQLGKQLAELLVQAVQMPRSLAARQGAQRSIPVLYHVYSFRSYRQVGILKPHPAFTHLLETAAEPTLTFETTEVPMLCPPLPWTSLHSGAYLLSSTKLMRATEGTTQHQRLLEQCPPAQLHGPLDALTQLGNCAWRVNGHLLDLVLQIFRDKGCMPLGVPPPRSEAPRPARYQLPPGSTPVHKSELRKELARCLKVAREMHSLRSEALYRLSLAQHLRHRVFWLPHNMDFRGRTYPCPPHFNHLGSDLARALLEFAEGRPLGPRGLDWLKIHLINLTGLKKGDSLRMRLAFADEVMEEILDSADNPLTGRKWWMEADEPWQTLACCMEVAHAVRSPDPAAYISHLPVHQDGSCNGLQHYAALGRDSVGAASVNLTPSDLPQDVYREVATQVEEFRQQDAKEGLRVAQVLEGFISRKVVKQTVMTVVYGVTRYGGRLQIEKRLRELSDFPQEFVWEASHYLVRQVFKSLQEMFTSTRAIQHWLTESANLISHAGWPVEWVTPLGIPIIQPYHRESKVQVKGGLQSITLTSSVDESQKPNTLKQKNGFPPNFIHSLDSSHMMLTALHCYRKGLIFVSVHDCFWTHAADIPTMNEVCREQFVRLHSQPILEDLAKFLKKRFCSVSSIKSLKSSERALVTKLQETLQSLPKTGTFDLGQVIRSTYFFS
Procedure, shortened: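 Read-out is TR-FRET (ex 340, em 665 nm) from two adjacent labelled DNA probes annealing to the 407 bp transcript after EDTA/700 mM NaCl stop. Reaction: murine POLRMT, TFAM, TFB2M and LSP plasmid template, compound 10 μM or serial dilution, 10 min rt preincubation, 500 μM each nucleotide, 2 h rt.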

Row | Compound | pIC50 [1] | pIC50 [2]
1 | Cc1cc(-c2c(C)cccc2C)c2ccc(O[C@H](C)C(=O)N3CCC[C@@H](S(N)(=O)=O)C3)cc2n1 [Compound 114, (3R)-1-[(2R)-2-[[4-(2,6-dimethylphenyl)-2-methyl-7-quinolyl]oxy]propanoyl]piperidine-3-sulfonamide] | 7.30 to 8.00 | 6.00 to 7.00
2 | Cc1cc(-c2ccc(F)cc2Cl)c2ccc(O[C@H](C)C(=O)N3CCC[C@@H](S(N)(=O)=O)C3)cc2n1 [Compound 115, (3R)-1-[(2R)-2-[[4-(2-chloro-4-fluoro-phenyl)-2-methyl-7-quinolyl]oxy]propanoyl]piperidine-3-sulfonamide] | 6.30 to 7.30 | 5.00 to 6.00
3 | C[C@@H](Oc1ccc2c(-c3ccc(F)cc3Cl)ccnc2c1)C(=O)N1CCC[C@H](S(N)(=O)=O)C1 [Compound 116, (3S)-1-[(2R)-2-[[4-(2-chloro-4-fluoro-phenyl)-7-quinolyl]oxy]propanoyl]piperidine-3-sulfonamide] | > 8.00 | 6.00 to 7.00
4 | C[C@@H](Oc1ccc2c(-c3ccc(F)cc3Cl)ccnc2c1)C(=O)N1CCC[C@@H](S(N)(=O)=O)C1 [Compound 117, (3R)-1-[(2R)-2-[[4-(2-chloro-4-fluoro-phenyl)-7-quinolyl]oxy]propanoyl]piperidine-3-sulfonamide] | 7.30 to 8.00 | 6.00 to 7.00
5 | C[C@@H](Oc1ccc2c(-c3ccccc3Cl)ccnc2c1)C(=O)N1CCC(CCC(=O)O)CC1 [Compound 118, 3-[1-[(2R)-2-[[4-(2-chlorophenyl)-7-quinolyl]oxy]propanoyl]-4-piperidyl]propanoic acid] | 7.30 to 8.00 | > 7.70
6 | C[C@@H](Oc1ccc2c(-c3c(Cl)cccc3Cl)ccnc2c1)C(=O)N1CCC[C@H](CC(=O)O)C1 [Compound 120, 2-[(3R)-1-[(2R)-2-[[4-(2,6-dichlorophenyl)-7-quinolyl]oxy]propanoyl]-3-piperidyl]acetic acid] | 7.30 to 8.00 | > 7.70
7 | CCc1ccccc1-c1ccnc2cc(O[C@H](C)C(=O)N3CCC[C@H](CC(=O)O)C3)ccc12 [Compound 121, 2-((R)-1-((R)-2-((4-(2-ethylphenyl)quinolin-7-yl)oxy)propanoyl)piperidin-3-yl)acetic acid] | 7.30 to 8.00 | 7.00 to 7.70
8 | Cc1cc(-c2c(C)cccc2C)c2ccc(O[C@H](C)C(=O)N3CCC[C@H](CC(=O)O)C3)cc2n1 [Compound 124, 2-[(3R)-1-[(2R)-2-[[4-(2,6-dimethylphenyl)-2-methyl-7-quinolyl]oxy]propanoyl]-3-piperidyl]acetic acid] | 6.30 to 7.30 | 6.00 to 7.00
9 | C[C@@H](Oc1ccc2c(-c3ccc(F)cc3Cl)ccnc2n1)C(=O)N1CCC[C@H](C(=O)O)C1 [Compound 126, (3S)-1-[(2R)-2-[[5-(2-chloro-4-fluoro-phenyl)-1,8-naphthyridin-2-yl]oxy]propanoyl]piperidine-3-carboxylic acid] | 7.30 to 8.00 | 6.00 to 7.00
10 | C[C@@H](Oc1ccc2c(-c3ccc(F)cc3Cl)ccnc2n1)C(=O)N1CCC[C@H](CC(=O)O)C1 [Compound 128, 2-[(3R)-1-[(2R)-2-[[5-(2-chloro-4-fluoro-phenyl)-1,8-naphthyridin-2-yl]oxy]propanoyl]-3-piperidyl]acetic acid] | 6.30 to 7.30 | 6.00 to 7.00
11 | C[C@@H](Oc1ccc2c(-c3c(Cl)cccc3Cl)ccnc2c1)C(=O)N1CCC[C@H](C(=O)O)C1 [Compound 129, (3S)-1-[(2R)-2-[[4-(2,6-dichlorophenyl)-7-quinolyl]oxy]propanoyl]piperidine-3-carboxylic acid] | > 8.00 | > 7.70
12 | C[C@@H](Oc1ccc2c(-c3ccc(F)cc3Cl)ccnc2c1)C(=O)Nc1ccccn1 [Compound 130, (2R)-2-[[4-(2-chloro-4-fluoro-phenyl)-7-quinolyl]oxy]-N-(2-pyridyl)propanamide] | 5.30 to 6.30 | 6.00 to 7.00
13 | CCNC(=O)[C@@H](C)Oc1ccc2c(-c3ccc(F)cc3Cl)ccnc2c1 [Compound 131] | 6.30 to 7.30 | 5.00 to 6.00
14 | C[C@@H](Oc1ccc2c(-c3c(Cl)cc(F)cc3Cl)ccnc2c1)C(=O)N1CCC[C@H](C(=O)O)C1 [Compound 132, (3S)-1-[(2R)-2-[[4-(2,6-dichloro-4-fluoro-phenyl)-7-quinolyl]oxy]propanoyl]piperidine-3-carboxylic acid] | > 8.00 | > 7.70
15 | Cc1cscc1-c1ccnc2cc(O[C@H](C)C(=O)N3CCC[C@H](CC(=O)O)C3)ccc12 [Compound 133, 2-[(3R)-1-[(2R)-2-[[4-(4-methyl-3-thienyl)-7-quinolyl]oxy]propanoyl]-3-piperidyl]acetic acid] | 6.30 to 7.30 | 6.00 to 7.00

Results, then the compound that gave them:

Row | pIC50 [1] | pIC50 [2] | Compound
16 | > 8.00 | > 7.70 | C[C@@H](Oc1ccc2c(-c3c(Cl)cc(F)cc3Cl)ccnc2c1)C(=O)N1CCC[C@](C)(C(=O)O)C1 [Compound 173, (3S)-1-[(2R)-2-[[4-(2,6-dichloro-4-fluoro-phenyl)-7-quinolyl]oxy]propanoyl]-3-methyl-piperidine-3-carboxylic acid]
17 | > 8.00 | > 7.70 | Cc1cc(F)cc(C)c1-c1ccnc2cc(O[C@H](C)C(=O)N3CCC[C@@](C)(C(=O)O)C3)ccc12 [Compound 175, (3R)-1-[(2R)-2-[[4-(4-fluoro-2,6-dimethyl-phenyl)-7-quinolyl]oxy]propanoyl]-3-methyl-piperidine-3-carboxylic acid]
18 | 7.30 to 8.00 | > 7.70 | Cc1cc(F)cc(C)c1-c1ccnc2cc(O[C@H](C)C(=O)N3CCCC[C@@H]3C)ccc12 [Compound 176, (2R)-2-[[4-(4-fluoro-2,6-dimethyl-phenyl)-7-quinolyl]oxy]-1-[(2S)-2-methyl-1-piperidyl]propan-1-one]
19 | 7.30 to 8.00 | > 7.70 | Cc1cc(F)cc(C)c1-c1ccnc2cc(O[C@H](C)C(=O)N3CCOCC3)ccc12 [Compound 178, (2R)-2-[[4-(4-fluoro-2,6-dimethyl-phenyl)-7-quinolyl]oxy]-1-morpholino-propan-1-one]
20 | > 8.00 | > 7.70 | Cc1cc(F)cc(C)c1-c1ccnc2cc(O[C@H](C)C(=O)N3CCC4(CC3)COC4)ccc12 [Compound 179, (2R)-2-[[4-(4-fluoro-2,6-dimethyl-phenyl)-7-quinolyl]oxy]-1-(2-oxa-7-azaspiro[3.5]nonan-7-yl)propan-1-one]
21 | > 8.00 | > 7.70 | Cc1cc(F)cc(C)c1-c1ccnc2cc(O[C@H](C)C(=O)N3CCC4(CCNC4=O)CC3)ccc12 [Compound 181, 8-[(2R)-2-[[4-(4-fluoro-2,6-dimethyl-phenyl)-7-quinolyl]oxy]propanoyl]-2,8-diazaspiro[4.5]decan-1-one]
22 | > 8.00 | > 7.70 | Cc1cc(F)cc(C)c1-c1ccnc2cc(O[C@H](C)C(=O)N3CCC[C@H](CC(=O)O)C3)ccc12 [Compound 183, 2-[(3R)-1-[(2R)-2-[[4-(4-fluoro-2,6-dimethyl-phenyl)-7-quinolyl]oxy]propanoyl]-3-piperidyl]acetic acid]
23 | > 8.00 | > 7.70 | Cc1cc(F)cc(C)c1-c1ccnc2cc(O[C@H](C)C(=O)N3CCC[C@](C)(C(=O)O)C3)ccc12 [Compound 184, (3S)-1-[(2R)-2-[[4-(4-fluoro-2,6-dimethyl-phenyl)-7-quinolyl]oxy]propanoyl]-3-methyl-piperidine-3-carboxylic acid]
24 | > 8.00 | > 7.70 | CC(=O)N(O)[C@H]1CCCN(C(=O)[C@@H](C)Oc2ccc3c(-c4c(C)cc(F)cc4C)ccnc3c2)C1 [Compound 185, N-[(3S)-1-[(2R)-2-[[4-(4-fluoro-2,6-dimethyl-phenyl)-7-quinolyl]oxy]propanoyl]-3-piperidyl]-N-hydroxy-acetamide]
25 | > 8.00 | > 7.70 | Cc1cc(F)cc(C)c1-c1ccnc2cc(O[C@H](C)C(=O)N3CCCC[C@H]3C)ccc12 [Compound 187, (2R)-2-[[4-(4-fluoro-2,6-dimethyl-phenyl)-7-quinolyl]oxy]-1-[(2R)-2-methyl-1-piperidyl]propan-1-one]
26 | 7.30 to 8.00 | > 7.70 | C[C@@H](Oc1ccc2c(-c3c(Cl)cc(F)cc3Cl)ccnc2c1)C(=O)N1CCC[C@@](C)(C(=O)O)C1 [Compound 188, (3R)-1-[(2R)-2-[[4-(2,6-dichloro-4-fluoro-phenyl)-7-quinolyl]oxy]propanoyl]-3-methyl-piperidine-3-carboxylic acid]
27 | > 8.00 | > 7.70 | C[C@@H](Oc1ccc2c(-c3ccc(F)cc3Cl)ccnc2c1)C(=O)N1CCC[C@](C)(C(=O)O)C1 [Compound 189, (3S)-1-[(2R)-2-[[4-(2-chloro-4-fluoro-phenyl)-7-quinolyl]oxy]propanoyl]-3-methyl-piperidine-3-carboxylic acid]
28 | > 8.00 | 7.00 to 7.70 | C[C@@H](Oc1ccc2c(-c3c(Cl)cc(F)cc3Cl)ccnc2c1)C(=O)N1CCC[C@H](CC(=O)O)C1 [Compound 192, 2-[(3R)-1-[(2R)-2-[[4-(2,6-dichloro-4-fluoro-phenyl)-7-quinolyl]oxy]propanoyl]-3-piperidyl]acetic acid]
29 | 7.30 to 8.00 | 7.00 to 7.70 | C[C@@H](Oc1ccc2c(-c3ccc(F)cc3Cl)ccnc2c1)C(=O)N1CCCC2(CC2C(=O)O)C1 (stereo partly drawn) [Compound 193, 5-[rac-(2R)-2-[[4-(2-chloro-4-fluoro-phenyl)-7-quinolyl]oxy]propanoyl]-5-azaspiro[2.5]octane-2-carboxylic acid]
30 | 7.30 to 8.00 | 7.00 to 7.70 | C[C@@H](Oc1ccc2c(-c3c(Cl)cc(F)cc3Cl)ccnc2c1)C(=O)N1CCCC(C(C)(C)C(=O)O)C1 (stereo partly drawn) [Compound 195, 2-methyl-2-[1-[rac-(2R)-2-[[4-(2,6-dichloro-4-fluoro-phenyl)-7-quinolyl]oxy]propanoyl]-3-piperidyl]propanoic acid]
